From paper PMC8518382, “Identification of a Bromodomain‐like Region in 15‐Lipoxygenase‐1 Explains Its Nuclear Localization” (Angewandte Chemie (International Ed. in English), 2021)

Tests used:
15-LOX-1 [1] = biological target: T1, 15-LOX-1 (Homo sapiens, UniProt P16050); test: 15-LOX-1 activity assay, UV-absorbance change for linoleic acid conversion; assay type: biochemical; design: His-tag (N); made in house; host or cells: E. coli BL21(DE3); conditions: for IC50: 10 min pre-incubation at RT, 25 µM linoleic acid, absorbance 234 nm; for Mode of inhibition (Lineweaver–Burk plots): Km constant, Vmax decreases with inhibitor concentration
T1 sequence (P16050 1-662): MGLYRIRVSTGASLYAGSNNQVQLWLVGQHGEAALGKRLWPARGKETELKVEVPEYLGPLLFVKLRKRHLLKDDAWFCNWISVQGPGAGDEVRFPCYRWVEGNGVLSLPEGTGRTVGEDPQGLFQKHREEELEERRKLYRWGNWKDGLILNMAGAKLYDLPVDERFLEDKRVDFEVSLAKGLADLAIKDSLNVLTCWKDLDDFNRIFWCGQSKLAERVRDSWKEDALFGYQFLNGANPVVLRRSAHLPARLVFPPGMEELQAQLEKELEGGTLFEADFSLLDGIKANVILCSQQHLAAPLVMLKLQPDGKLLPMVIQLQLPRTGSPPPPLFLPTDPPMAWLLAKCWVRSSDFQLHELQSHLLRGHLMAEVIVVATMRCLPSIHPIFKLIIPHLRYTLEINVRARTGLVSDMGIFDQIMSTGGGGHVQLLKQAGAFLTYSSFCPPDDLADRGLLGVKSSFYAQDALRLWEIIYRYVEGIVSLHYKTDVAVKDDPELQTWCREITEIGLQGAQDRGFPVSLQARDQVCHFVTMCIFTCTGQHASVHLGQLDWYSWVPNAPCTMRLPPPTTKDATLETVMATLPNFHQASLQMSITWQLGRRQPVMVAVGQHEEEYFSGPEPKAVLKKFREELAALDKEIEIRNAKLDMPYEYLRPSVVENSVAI
Excerpt: In brief, an alkyne‐alcohol was linked to propargyl halide (Cl or Br) using a CuI‐catalyzed Sonogashira cross‐coupling reaction followed by biotinylation of the alcohol using EDCI and HOBt as reagents to provide the desired biotinylated bis‐alkyne probes. The biotinylated bis‐alkynes were subjected to 15‐LOX‐1 binding studies using a 15‐LOX‐1 activity assay based on the UV‐absorbance change for linoleic acid conversion (Figure 1 a). […] Next, we evaluated the effect of the extension of the terminal ethyl substitution of inhibitor 1. […]
empty plasmid was proceed with the same procedure, which lysate was used as the negative control (referred as BL21 control later) in 15-LOX-1 recombinant enzyme inhibition studies.
1.3. Purification of recombinant human 15-LOX-1
The 15-LOX-1 with N-terminal his-tag was produced as described above. After removing the cell debris, the supernatant containing 15-LOX-1 was loaded on a Ni-NTA column (Qiagen, Hilden, Germany) pre-equilibrated with LOX lysis buffer. The column was washed twice with 30 column volume of LOX lysis buffer, and once with 30 column volume of wash buffer (25 mM HEPES, 300 mM NaCl, 25 mM Imidazole, pH 8.0). Later, the 15-LOX-1 was eluted twice with 2 column volume of elution buffer (25 mM HEPES, 300 mM NaCl, 250 mM Imidazole, pH 8.0), followed by desalting with a PD-10 column (Sigma-Aldrich) with LOX storage buffer (25 mM HEPES, 20% Glycerol, pH 7.5). The desalted 15-LOX-1 was further purified and concentrated with Vivaspin Turbo 15 (30.000 MWCO). The protein concentration was determined by Nanodrop spectrophotometry. The 100 μl aliquots of 15-LOX-1 were stored at -20 for further experiments.
15-LOX-1 recombinant enzyme inhibition assay
The 15-LOX-1 inhibition assay has been detailed previously. Briefly, the conversion of linoleic acid to hydroperoxy-(9Z,11E)-octadecadienoic acid (λmax of 234 nm) was used to determine the activity of the 15-LOX-1 enzyme. The conversion rate was the slope of UV-absorbance at 234 nm overtime at the […]
To determine the IC50 of probes, the cell lysate was pre-diluted in LOX assay buffer at a ratio of 1:160. The inhibition assay was done in an F-bottom UV-STAR 96-well plate, in which 50 µl of the diluted enzyme was incubated with 140 µl of a probe diluted in LOX assay buffer for 10 min at room temperature (RT). Later 10 µl of 500 µM linoleic acid dissolved in ethanol was added to the plate to reach a final concentration of 25 µM. The UV-absorbance at 234 nm was determined by a BioTek Synergy H1 plate reader (BioTek, Winooski, VT, USA) . The slope of the 15-LOX-1 sample untreated with the probe was set as 100%, while the slope of the BL21 control sample was set as 0%.
For the determination of enzyme kinetics, a series concentration of linoleic acid was used. Fifty µl of pre-diluted 15-LOX-1 enzyme was incubated with 140 µl of probe solution at a fixed concentration for 10 min at RT. Subsequently, 10 µl of a series concentration of linoleic acid was added to a final concentration ranging from 10 µM to 100 µM. The conversion rate was calculated as the same as […]
described in the IC50 determination assay. Michaelis-Menten plots, Lineweaver-Burk plots, Km, and Vmax, are generated using GraphPad Prism 8.3.0. […]

15-LOX-1 [2] = biological target: T1, 15-LOX-1; test: Kitz-Wilson kinetic analysis of 15-LOX-1 inactivation; assay type: biochemical; design: His-tag (N); made in house; host or cells: E. coli BL21(DE3); conditions: for Ki: read-out: K i (equilibrium binding constant)
Method: Subsequently, Kitz‐Wilson analysis was performed to distinguish the equilibrium binding constant (K i) from the rate of covalent inactivation (k i). The different bis‐alkynes provided remarkably constant k i’s that varied by a factor 3 or less, whereas the K i’s varied by a factor 200 (Table 1). […] Improved non‐covalent binding is an important characteristic for activity‐based labeling because it implies improved specific recognition properties to the target of interest. Therefore, inhibitor 3 has been used for further development of a probe for activity‐based labeling of lipoxygenase activity with 15‐LOX‐1 as a reference enzyme. For convenient discussion, we named inhibitor 3, “Labelox B”. […]
described in the IC50 determination assay. Michaelis-Menten plots, Lineweaver-Burk plots, Km, and Vmax, are generated using GraphPad Prism 8.3.0.
1.5. Kits-Wilson kinetic analysis
The probes inhibit the 15-LOX-1 enzyme with a two-step reaction. First, a probe binds to an enzyme to get a reversible complex, E*I. The dissociation constant of inhibitor (Ki) is from the formation of E*I. Then, the probe forms a covalent bond with the enzyme, which generates an irreversible complex, E-I. The inactivation rate constant (ki) is to describe the rate of E-I generation. To determine these inactivation parameters, Kitz-Wilson analysis was employed. The procedure has been detailed previously

Row | Compound | IC50 (15-LOX-1 [1]) | Mode of inhibition (Lineweaver–Burk plots) (15-LOX-1 [1]) | k i (rate of covalent inactivation) (15-LOX-1 [2]) | Ki (15-LOX-1 [2]) | further results
1 | CCC#CCC#CC(C)OC(=O)CCCC[C@@H]1SCC2NC(=O)NC21 (some centres unmarked) [Probe 2] | > 100 µM | – | – | – | LOX inhibitory potency (words) (15-LOX-1 [1]; structure-activity discussion): potency was lost
2 | CCCCCC#CCC#CCCCOC(=O)CCCC[C@@H]1SC[C@@H]2NC(=O)N[C@@H]21 [Probe 6] | – | – | – | – | LOX inhibitory potency (words) (15-LOX-1 [1]; structure-activity discussion in text, listed as 6): did not improve the potency
3 | CCC#CCC#CCOC(=O)CCCC[C@@H]1SCC2NC(=O)NC21 (some centres unmarked) [Probe 1] | 38.2 µM | non‐competitive LOX inhibition | 0.0136 ± 0.0061 min⁻¹ | 116 ± 19.5 µM | –
4 | CCC#CCC#CCCCOC(=O)CCCC[C@@H]1SC[C@@H]2NC(=O)N[C@@H]21 [Probe 5] | 19.8 µM | – | 0.0066 ± 0.0047 min⁻¹ | 38.7 ± 6.33 µM | LOX inhibitory potency (words) (15-LOX-1 [1]; structure-activity discussion): loss of LOX inhibitory potency
5 | CCC#CCC#CCCOC(=O)CCCC[C@@H]1SC[C@@H]2NC(=O)N[C@@H]21 [Probe 4] | 11.1 µM | – | 0.0093 ± 0.0031 min⁻¹ | 16.6 ± 3.29 µM | LOX inhibitory potency (words) (15-LOX-1 [1]; structure-activity discussion in text, listed as 4): loss of LOX inhibitory potency

Second part, led by results:

Row | IC50 (15-LOX-1 [1]) | Mode of inhibition (Lineweaver–Burk plots) (15-LOX-1 [1]) | k i (rate of covalent inactivation) (15-LOX-1 [2]) | Ki (15-LOX-1 [2]) | Compound | further results
6 | > 100 µM | – | – | – | CCCC#CCOC(=O)CCCC[C@@H]1SCC2NC(=O)NC21 (some centres unmarked) [Probe 10] | –
7 | > 100 µM | non‐competitive LOX inhibition | – | – | CCC#CCC#CCCOC(=O)CCCC[C@@H]1SC[C@@H]2NC(=O)N[C@@H]21 [Probe 8] | LOX inhibitory potency (words) (15-LOX-1 [1]; structure-activity discussion in text, listed as 8): did not improve the potency
8 | > 100 µM | – | – | – | C#CCOC(=O)CCCC[C@@H]1SCC2NC(=O)NC21 (some centres unmarked) [Probe 9] | –
9 | > 100 µM | non‐competitive LOX inhibition | – | – | CCCCCC#CCC#CCCCOC(=O)CCCC[C@@H]1SC[C@@H]2NC(=O)N[C@@H]21 [Probe 7] | LOX inhibitory potency (words) (15-LOX-1 [1]; structure-activity discussion in text, listed as 7): regain in potency
